Measured values taken from US12522576B2, “Polymorphs of D9-THC naphthoylester” (priority 2019, dated 2026).
In brackets after ≈: the same amount, converted by molar mass.

Tests used:
[1] = Competitive ripening (relative thermodynamic stability of non-solvated forms); settings: Table 6 summary
[2] = type: physicochemical; settings: for Time of conversion to Form C in the solid-state: ambient temperature
Procedure: Powder X-Ray Diffraction (PXRD). PXRD diffractograms were acquired on a PANalytical X'Pert Pro diffractometer using Ni-filtered Cu Ka (45 kV/40 mA) radiation and a step size of 0.03° 2θ and X'celerator™ RTMS (Real Time Multi-Strip) detector. Configuration on the incidental beam side: variable divergence slits (10 mm irradiated length), 0.04 rad Soller slits, fixed anti-scatter slit (0.50 o), and 10 mm beam mask. Configuration on the diffracted beam side: variable anti-scatter slit (10 mm observed length) and 0.04 rad Soller slit. Samples were mounted flat on zero-background Si wafers.
Group D solvates converted to Form C in the solid-state at different rates, depending on the solvent included. […] No phase-pure Group D was isolated from acetone-containing solvents, indicating the unstable nature of this solvate.

[3] = Polymorph screen of Exo-impurity; type: physicochemical
Gravimetric solubility = type: physicochemical; settings: 20 °C, organic solvent or mixture, thermodynamic from solid, RT, read-out: Gravimetric Solubility at RT
Procedure: Additional solids or solvents were added to visual solubility samples with vials less than 100 mg/mL to produce slurries at 20 and 50° C. for the subsequent equilibrium solubility assessment. The slurries were stirred at 20 and 50° C. overnight, filtered through 0.2 μm syringe filters and evaporated to dryness under reduced pressure at ambient temperature. Gravimetric solubility was calculated by dividing the dry solids residue mass (mg) by the solvent mass (g). The mg/g solubility values were then converted to mg/mL using solvent density.
The solubility of Group D acetone and DMF solvates were assessed in the corresponding solvents.

[4] = D9 solubility in the liquors at isolation temperature; type: physicochemical; settings: crystallisation liquors over suspended solid, 25 °C, organic solvent or mixture, thermodynamic from solid, batch 5; Nitromethane; seed G; heat T 40; isolation T 25; 32.6 mL/g; SP 3
Procedure: At the end of each experiment, suspensions were equilibrated at the isolation temperature (25 or 5° C.) for at least 18 hours and the solids and liquors separated by centrifugation at the isolation temperature. The Exo/D9/D8 ratio (Exo-D9-THC-naphthoylester impurity/D9-THC-naphthoylester/D8-THC-naphthoylester) was determined in both the isolated solids and the liquors, from which the % Exo-depletion in the isolated solids was calculated. Several solids were also isolated at elevated temperatures to assess the impact of the isolation temperature on Exo-impurity depletion.
In addition, the solubility of D9 in the liquors was determined in most of the explored solvents and used to estimate the yield.

[5] = Experiment No. 20, Nitromethane, seed Form E
[6] = Experiment No. 21, DMSO, seed Group D
[7] = Experiment No. 22, Acetone, seed Group D
[8] = Experiment No. 23, MeCN, seed Group D
[9] = Experiment No. 24, P-Xylene/MeOH (10:90), seed Form E

CCCCCc1cc(OC(=O)c2ccc3ccccc3c2)c2c(c1)OC(C)(C)[C@@H]1CCC(C)=C[C@@H]21 [Form F, (6aR,10aR)-6a,7,8,10a-tetrahydro-6,6,9-trimethyl-3-pentyl-6H-dibenzo[b,d]pyran-1-yl ester]
Nature (thermodynamic stability of crystal form) [1]: Transient | Form conversion by PXRD ([2]; wet-cake after air-drying for five minutes at ambient): converted to Form E

C=C1CC[C@@H]2[C@@H](C1)c1c(OC(=O)c3ccc4ccccc4c3)cc(CCCCC)cc1OC2(C)C [Exo, (6aR,10aR)-6,6-dimethyl-9-methylene-3-pentyl-6a,7,8,9,10,10a-hexahydro-6H-benzo[c]chromen-1-yl 2-naphthoate]
Form Isolated at 5° C. 6 D (Exo) [3, 5]: Input | Form Isolated at RT 5 D (Exo) [3, 5]: Input | Form Isolated at 5° C. 6 D (Exo) [3, 6]: Input | Form Isolated at RT 5 D (Exo) [3, 6]: Input | Form Isolated at 5° C. 6 D (Exo) [3, 7]: Input | Form Isolated at RT 5 D (Exo) [3, 7]: No | Form Isolated at 5° C. 6 D (Exo) [3, 8]: Input | Form Isolated at RT 5 D (Exo) [3, 8]: Input | Form Isolated at 5° C. 6 D (Exo) [3, 9]: Input | Form Isolated at RT 5 D (Exo) [3, 9]: Input | Polymorphism ([3]; seeded slurries at RT and 5° C.): No evidence of polymorphism

CCCCCc1cc(OC(=O)c2ccc3ccccc3c2)c2c(c1)OC(C)(C)[C@@H]1CCC(C)=C[C@@H]21 [DMSO solvate]
Time of conversion to Form C in the solid-state [2]: within five days

CCCCCc1cc(OC(=O)c2ccc3ccccc3c2)c2c(c1)OC(C)(C)[C@@H]1CCC(C)=C[C@@H]21 [DMF solvate of Group D]
solubility (Gravimetric solubility; solvent DMF, Batch 8): 95 mg/mL | Time of conversion to Form C in the solid-state [2]: overnight

CCCCCc1cc(OC(=O)c2ccc3ccccc3c2)c2c(c1)OC(C)(C)[C@@H]1CCC(C)=C[C@@H]21 [Acetone solvate of Group D]
solubility (Gravimetric solubility; solvent Acetone, Batch 7): 98 mg/mL | Stability of solvate ([2]; no phase-pure Group D isolated from acetone-containing solvents): unstable

CCCCCc1cc(OC(=O)c2ccc3ccccc3c2)c2c(c1)OC(C)(C)[C@@H]1CCC(C)=C[C@@H]21 [Form E, (6aR,10aR)-6a,7,8,10a-tetrahydro-6,6,9-trimethyl-3-pentyl-6H-dibenzo[b,d]pyran-1-yl ester]
solubility [4]: 7 mg/mL (≈ 14.9 mM) | Nature (thermodynamic stability of crystal form) [1]: Metastable
